The structures appear in SMILES notation.

Common to all, as to assay type: physicochemical
Data set [1] in a line: In vitro drug release (dissolution) profile, USP apparatus 1, 0.1 N HCl. The following applies: 50 RPM, solid composition with pregelatinized starch. On the procedure: Optically pure Ramipril(I) obtained from example 1 is formulated as a solid pharmaceutical composition by conventional way of direct mixing process with excipients such as pregelatinized starch.
Ramipril(I) monohydrate obtained from example 5 is formulated as a solid pharmaceutical composition by conventional way of direct mixing process with excipients such as pregelatinized starch.
The in vitro drug release profile was carried out using USP apparatus 1,500 ml of 0.1 N HCl at 50 RPM. Following table provides a comparison of dissolution profile of Ramipril(I) crystallized from diethoxymethane as well as the Ramipril(I) monohydrate and prior art method.

Data set [2] is described as follows: Thermal stability of the hydrate form. The settings on record: converts to anhydrous form on heating above 40° C. On the procedure: The novel hydrate of Ramipril(I) occurs in crystalline form. It is readily converted to the anhydrous moiety by heating at a temperature in the range from 40° C. to 42° C. under reduced pressure of 2 to 5 mm hg. The novel hydrate form is stable up to a temperature of 25° C. The monohydrate is transformed into anhydrous Ramipril(I), the so-called “anhydrate” on heating above 40° C. with a speed depending on the conditions of dehydration.

The nature of data set [3]: Bulk density (B.D.) of crystalline material. The source says: The bulk density is an economically, commercially, and functionally important property. […] Moreover, when shipping powders over long distances a high bulk density results in reducing the shipping volume. A high bulk density compound also saves packing material and storage capacity.
Data set [4] can be described thus: Tapped density (T.D.) of crystalline material.
Data set [5] can be described thus: Stability study at 40° C./75% RH, assay by HPLC. The following applies: crystallized by Diethoxymethane.
[6] abbreviates: Present invention, solvent 2,2-Dimethoxy-propane.
[7] abbreviates: Present invention, solvent Diethoxymethane.
Where [8] appears, read: Present invention, solvent Methyl formate.
Where [9] appears, read: Present invention, solvent Nitromethane.
Setting [10] is: Prior art method, solvent Ethanol-diethyl ether.
The mark [11] stands for this setting: Prior art method, solvent Ethanol-diisopropyl ether.

Turning to `CCOC(=O)[C@H](CCc1ccccc1)N[C@@H](C)C(=O)N1[C@H](C(=O)O)C[C@@H]2CCC[C@@H]21` [Crystallised from Diethoxymethane, (2S,3aS,6aS)-1-[(S)-2-[[(S)-1-(ethoxycarbonyl)-3-phenylpropyl]-amino]propanoyl]octahydrocyclopenta[b]pyrrole-2-carboxylic acid], the “% Drug release of the Label claim” value in data set [1] (5 Min.) turned out to be 48.4%; in data set [1] (10 Min.), 93.8%.
Turning to `CCOC(=O)[C@H](CCc1ccccc1)N[C@@H](C)C(=O)N1[C@H](C(=O)O)C[C@@H]2CCC[C@@H]21` [Prior art Method], the entries for the “% Drug release of the Label claim” value in data set [1] (5 Min.) and in data set [1] (10 Min.) were 18.8% and 75%, respectively.
On to `CCOC(=O)[C@H](CCc1ccccc1)N[C@@H](C)C(=O)N1[C@H](C(=O)O)C[C@@H]2CCC[C@@H]21.O` [Monohydrate Ramipril(I)], for which the “% Drug release of the Label claim” value is given as 40.8% in data set [1] (5 Min.) and 87% in data set [1] (10 Min.). Also, the “temperature up to which the form is stable” value in data set [2] is at most 25 °C.
In data set [3], `CCOC(=O)[C@H](CCc1ccccc1)N[C@@H](C)C(=O)N1[C@H](C(=O)O)C[C@@H]2CCC[C@@H]21` [anhydrous Ramipril(I)] gave a bulk density of 0.3 to 0.35 g/mL.
As for `CCOC(=O)[C@H](CCc1ccccc1)N[C@@H](C)C(=O)N1[C@H](C(=O)O)C[C@@H]2CCC[C@@H]21` [Ramipril(I), (2S,3aS,6aS)-1-[(S)-2-[[(S)-1-(ethoxycarbonyl)-3-phenylpropyl]-amino]propanoyl]octahydrocyclopenta[b]pyrrole-2-carboxylic acid], the T.D. fell in the range of 0.14 to 0.18 g/mL in data set [4] (setting [6]); 0.32 to 0.37 g/mL in data set [4] (setting [7]); 0.15 to 0.17 g/mL in data set [4] (setting [8]); 0.15 to 0.17 g/mL in data set [4] (setting [9]); 0.15 to 0.17 g/mL in data set [4] (setting [10]); 0.13 to 0.15 g/mL in data set [4] (setting [11]). The “Assay by HPLC(%)” value in data set [5] (40° C. ± 2° C./75% ± 5% RH, 1 Month) is recorded as 99.5%; in data set [5] (40° C. ± 2° C./75% ± 5% RH, 2 Month) it was 99.2%; in data set [5] (40° C. ± 2° C./75% ± 5% RH, 3 Month), 99.12%; in data set [5] (Initial), 99.68%. For the same molecule, the B.D. was in the range of 0.1 to 0.13 g/mL in data set [3] (setting [6]); 0.22 to 0.24 g/mL in data set [3] (setting [7]); 0.11 to 0.13 g/mL in data set [3] (setting [8]); 0.12 to 0.14 g/mL in data set [3] (setting [9]); 0.09 to 0.12 g/mL in data set [3] (setting [10]); 0.08 to 0.1 g/mL in data set [3] (setting [11]).

The record behind these values is patent publication US20080171780A1, “Process for Crystallization of Ramipril and Preparation of a Hydrated Form Thereof” (LUPIN LIMITED, priority 2004, published 2008).
